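How tested: cells in 96-well plates exposed to compound for 48 hours at five concentrations. The concentration for 50% growth inhibition is given as GI50. TGI: concentration producing complete growth inhibition.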
Key:
Assay in all cases: NCI anticancer screen, dose series, 48 h
CCRF-CEM leukemia = tested on: CCRF-CEM leukemia
HCC-2998 colon = tested on: HCC-2998 colon
HL-60(TB) leukemia = tested on: HL-60(TB) leukemia
HOP-92 NSCLC = tested on: HOP-92 NSCLC
HT29 colon = tested on: HT29 colon
KM12 colon = tested on: KM12 colon
MALME-3M melanoma = tested on: MALME-3M melanoma
NCI-H522 lung = tested on: NCI-H522 lung
SN12C renal = tested on: SN12C renal
UACC-257 melanoma = tested on: UACC-257 melanoma

Row | Compound | TGI (CCRF-CEM leukemia) [µM] | TGI (HCC-2998 colon) [µM] | TGI (HL-60(TB) leukemia) [µM] | TGI (HOP-92 NSCLC) [µM] | TGI (HT29 colon) [µM] | TGI (KM12 colon) [µM] | TGI (MALME-3M melanoma) [µM] | TGI (NCI-H522 lung) [µM] | TGI (SN12C renal) [µM] | TGI (UACC-257 melanoma) [µM] | GI50 (CCRF-CEM leukemia) [µM] | GI50 (HCC-2998 colon) [µM] | GI50 (HL-60(TB) leukemia) [µM] | GI50 (HOP-92 NSCLC) [µM] | GI50 (HT29 colon) [µM] | GI50 (KM12 colon) [µM] | GI50 (MALME-3M melanoma) [µM] | GI50 (NCI-H522 lung) [µM] | GI50 (SN12C renal) [µM] | GI50 (UACC-257 melanoma) [µM]
1 | NC(=S)N/N=C/c1ccc(OC(=O)COc2ccccc2Cl)cn1 | > 65.8 | > 87.4 | 64.9 | > 90.3 | > 100 | > 100 | > 88.7 | > 77.2 | > 100 | > 92.4 | – | – | – | – | – | – | – | – | – | –
2 | CCOC(=O)Oc1ccc2c(c1)c(=O)c1c(NCCCN(CC)CC)ccc3nnn2c31 | 6.88 | 21.8 | – | 24.6 | 15.9 | 19.8 | 29.7 | 19.7 | 19.1 | 29.8 | – | – | – | – | – | – | – | – | – | –
3 | C/C([O-])=C(/c1nc(-c2ccc([N+](=O)[O-])o2)no1)[n+]1cc(C)ccc1C | > 100 | 25.8 | 31.6 | > 100 | 22.7 | 25.4 | 28.2 | 14.4 | 29.3 | 24.2 | – | – | – | – | – | – | – | – | – | –
4 | Cc1nc(N(CCO)CCO)c2sc(=S)n(-c3ccccc3)c2n1 | > 100 | > 100 | > 100 | > 100 | > 100 | > 100 | > 100 | > 100 | – | > 100 | – | – | – | – | – | – | – | – | – | –
5 | COc1cc(Cc2ccc3c(c2C#N)N(C)c2ccccc2S3)cc(OC)c1OC | > 100 | – | > 100 | > 100 | > 100 | > 100 | > 100 | > 100 | > 100 | > 100 | – | – | – | – | – | – | – | – | – | –
6 | C/C(=N\NC(=S)Nc1ccc(Cl)cc1)c1nc2ncccc2[nH]1 | – | 21.1 | > 100 | 5.75 | 14.7 | 16.4 | 15.7 | 20.2 | 31.4 | 7.75 | – | – | – | – | – | – | – | – | – | –
7 | COc1cc(C2S/C(=C/c3ccccc3)C(=O)N2c2ccccc2Cl)cc(OC)c1OC (stereo unspecified) | – | > 100 | – | > 100 | 47.5 | > 100 | 82.1 | 39.2 | 62.1 | > 100 | – | – | – | – | – | – | – | – | – | –
8 | Cc1ccc(S(=O)(=O)Nc2cc(Sc3ccccc3)c(O)c3ccccc23)cc1 | 16.6 | 35.9 | 4.13 | 4.57 | 53.1 | 18.9 | 19.6 | 27.6 | 5.68 | 3.67 | 2.4 | 18.4 | 1.57 | 2.02 | 20.6 | 6.01 | 7.17 | 13.1 | 2.31 | 1.86
9 | COC(=O)C1=C(O)C(C(=O)OC)[C@@]2(O)[C@@H](C(=O)OC)CC[C@@H]1[C@@H]2C(=O)OC (stereo partly specified) | > 100 | 32.2 | 76.6 | – | > 100 | 66 | 74.3 | 52.4 | > 100 | > 100 | – | – | – | – | – | – | – | – | – | –
10 | Cc1ncc(CO)c(C=NCCCCCCN=Cc2c(CO)cnc(C)c2O)c1O | > 100 | > 100 | > 100 | > 100 | > 100 | > 100 | > 100 | > 100 | > 100 | > 100 | – | – | – | – | – | – | – | – | – | –
11 | CCOC(=O)C(=O)Nc1cccc(C)c1C | > 100 | > 100 | > 100 | > 100 | > 100 | > 100 | > 100 | > 100 | > 100 | > 100 | – | – | – | – | – | – | – | – | – | –
12 | O=c1oc2c(ccc3c(O)cccc32)c2c1CCCC2 | > 100 | > 100 | > 100 | 50.1 | > 100 | > 100 | > 100 | > 100 | > 100 | > 100 | – | – | – | – | – | – | – | – | – | –
13 | CCOC(=O)/C(=N/Nc1ccc(Cl)cc1)N1C(=S)C=C(C)NN(C)C1=S | > 100 | > 100 | > 100 | > 100 | > 100 | > 100 | – | 50.2 | > 100 | > 100 | – | – | – | – | – | – | – | – | – | –
14 | O=C(O)CN=c1c2ccccc2n(O)c2ccccc12 | 53.6 | > 100 | 43 | – | > 100 | > 100 | > 100 | > 100 | > 100 | > 100 | – | – | – | – | – | – | – | – | – | –

From PubChem BioAssay (NCI)
